According to US6812218B2, “Lipid derivatives of polythiourea” (Gencell S.A., priority 2001, dated 2004):

Assays:
plasmid pXL3031 = assay: ethidium bromide fluorescence test of nucleic acid compaction; format: binding; details: conditions identical to the DT-3TU mixtures, 150 mM sodium chloride
Procedure: In the text which follows, the nucleic acid used was the plasmid pXL3031 described in the publication Gene Therapy (1999) 6, pp. 1482-1488, which contained the luc gene encoding luciferase under the control of the cytomegalovirus CMV E/P promoter. This plasmid is represented in FIG. 7. Its size is 3671 bp. The plasmid solution used was diluted to 1.262 g/l in water for injection.
(§1) The nucleic acid was brought into contact with increasing quantities of DT-3TU (12), by equivolumetric mixing of lipid solutions of various titers in the solutions of nucleic acid. Samples of 800 μl of nucleic acid complexes with a concentration of 0.01 μg/ml were thus prepared in a 150 mM sodium chloride solution with increasing quantities of DT-3TU (12).
as §1, with “In the same manner, a control was prepared by bringing the” for “The”, “acid” for “acid was brought”, “EPC (see FIG. 1) or of DPPC (see FIG. 2),” for “DT-3TU (12),”, “[…]” for “μg/ml”, “EPC or of DPPC (FIGS. 1 and 2 respectively).” for “DT-3TU (12).”
The ethidium bromide fluorescence was measured over time (measured at 20° C.) using a FluoroMax-2 (Jobin Yvon-Spex) with excitation and emission wavelengths of 260 nm and 590 nm respectively. […]

HeLa cells [1] = assay: in vitro transfection, luciferase activity; format: cell-based, human; details: 10% FCS versus without serum
Procedure: This study was carried out for lipoplexes comprising various quantities of DT-3TU: 1.5 or 5 or 10 or 15 or 20 nmol of DT-3TU/μg of DNA. Each of these conditions was tested with and without fetal calf serum (“+Serum” or “−Serum”).
HeLa cells (American type Culture Collection (ATCC) Rockville, Md., USA) derived from a carcinoma of human cervical epithelium, were cultured in the presence of an MEM (“minimum essential medium”) type medium with addition of 2 mM L-glutamine, 50 units/ml of penicillin and 50 units/ml of streptomycin. The medium and the additives were from Gibco-BRL Life Technologies (Gaithersburg, Md., USA). The cells were cultured in flasks at 37° C. and at 5% carbon dioxide in an incubator.
one day before the transfection, the HeLa cells were transferred into […] with a cell number of 30,000 to 50,000 per well. These dilutions represent approximately 80% confluence after 24 hours. […]
Briefly, the transfected cells were washed twice with 500 μl of PBS (phosphate buffer) and then lysed with 250 μl of reagent (Promega cell culture lysis reagent, of the Luciferase Assay System kit). An aliquot of 10 μl of supernatant of the lysate centrifuged (12,000×g) for 5 minutes at 4° C. was measured with a Wallace Victor 2 luminometer (1420 Multilabel couter). […]

[2] = size of the lipid/DNA particles; format: physicochemical; details: without lipid-PEG
Excerpt: The use of cholesterol-PEG in the DT-3TU/DPPC formulations has the advantage of permitting the reduction of the particles to such a quantity of lipid that, in the case of the absence of lipid-PEG, would lead to aggregation. […] In order to obtain particles of this size it is necessary to use at least 40 nmol of the lipid DT-3TU/μg of DNA. Thus, the use of lipid-PEG in the formulations of the lipid DT-3TU has the advantage of reducing the quantity of DT-3TU necessary to compact the DNA and form particles whose size is smaller than 500 nm

[3] = tested on: tibial and cranial muscles; assay: in vivo muscle transfection, luciferase expression; set-up: species or system mice C57bl/6; details: intramuscular, 3 μg of DNA, 96 hours after injection
Procedure: Muscles samples were taken 96 hours after the injection and the level of expression for luciferase was measured using a luminometer (wallace).
Complexes containing increasing quantities of DT-3TU lipid per μg of DNA were injected in both tibial and cranial muscles of the mice, to which electric pulsations were or were not applied (Bureau, M et al, BBA 2000).
The mice C57bl/6 had undergone previously anaesthetic with a mixture of Ketamin/Xylazine. The injection was or was not followed by the application of transcutaneous electric pulsations using electrodes placed in both ends of the muscle (Bureau, M et al, BBA 2000).
96 hours after the injection, the mice underwent euthanasia, muscles samples were taken and ground in 1 ml buffer lyse solution. After centrifugation (10 min., 12000 rpm, 4° C.), supernatant (10 μl) was taken and placed in a 96 well plate to read the luciferase after adding 50 μl of luciferase substrate. The level of luminescence was read in the supernatant using a luminometer (Wallace, Victor).

HeLa cells [4] = assay: toxicity toward the cells, protein level after transfection; format: cell-based, human; details: lipoplexes with 0.75 to 20 nmol of DT-3TU per μg of DNA
Procedure: The protein level was measured after transfection. The transfection protocol was identical to that described in Example 8.
Briefly, the transfected cells were washed twice with 500 μl of PBS (phosphate buffer) and then lysed with 250 μl of reagent (Promega cell culture lysis reagent, of the Luciferase Assay System kit). An aliquot of 50 μl of supernatant of the lysate centrifuged (12,000×g) for 5 minutes at 4° C. was transferred into a tube in the presence of 50 μl of 0.1 M iodoacetamide, 0.1 M hydrochloric acid tris at pH 8.2 and left for 1 hour at 37° C. 20 μl of the preceding solutions were deposited in a 96-well plate and 200 μl of “BCA protein assay” reagent (Pierce, Montluson, France) were added. The plate was then centrifuged at 2500 revolutions/min and then incubated at 37° C. for 30 minutes. In parallel, a bovine serum albumin (BSA) range was prepared in order to correlate the absorbance value obtained for the samples with a quantity of protein present in the sample.

Compound | decrease in fluorescence, lipid alone (control) (plasmid pXL3031) | effect of the presence of serum on transfection (HeLa cells [1]) | quantity of lipid necessary to obtain particles inferior to 500 nm [2] | level of expression (luciferase) versus background noise of control muscle [3] | transfection of muscle tissues ([3]; 20 and 40 nmol of DT-3TU lipid per μg of DNA, with or without electric pulsations) | toxicity toward the cells (HeLa cells [4])
CCCCCCCCCCCCCCCC(=O)OC[C@H](COP(=O)([O-])OCC[N+](C)(C)C)OC(=O)CCCCCCCCCCCCCCC [DPPC, 1,2-dipalmitoyl-sn-glycero-3-phosphocholine] | about 5% | – | – | – | – | –
CCCCCCCCCCCCCCN(CCCCCCCCCCCCCC)C(=O)CCC(=O)NCCNC(=S)NCCNC(=S)NCCNC(=S)NC [DT-3TU, 3-(2-{3-[2-(3-{2-[3-(ditetradecylcarbamoyl)propionylamino]ethyl}thioureido)ethyl]thioureido}ethyl)-1-methylthiourea] | – | weak inhibition of transfection | at least 40 nmol of the lipid DT-3TU/μg of DNA | > 5.0×10^4 | significant level of transfection | no toxicity was observed
